The values that follow are results of earlier work, collected in patent publication US20080279948A1, “Treatment of Asthma and Copd Using Triple-Combination Therapy” (NXP B.V., priority 2005, published 2008).

For series [1] the following is noted: aerosol formulation, single administration of a metered dose, asthma.
For series [2] the following is noted: controlled release formulation for pulmonary delivery.

As to `C[N+]1(C)CCC(OC(=O)C(O)(c2ccccc2)C2CCCC2)C1.[Br-]` (racemic) [glycopyrrolate, 3-[(Cyclopentyl-hydroxyphenylacetyl)oxy]-1,1-dimethylpyrrolidinium bromide], the duration of bronchodilation result in series [1] was “up to 12 hours”. In addition, the “period over which the antimuscarinic agent exerts its pharmacological effect” value in series [2] is recorded as “greater than 12 hours”.
